Laboratory results taken from patent publication US11344496B2, “Methods for preparing stabilized amorphous drug formulations using acoustic fusion” (Merck Sharp & Dohme Corp., priority 2017, dated 2022).

What was measured:
[1] = BCS (Biopharmaceutics Classification System) designation by solubility and permeability; assay type: physicochemical; set-up: key: BCS Class 1 describes compounds with high permeability and high solubility.; BCS Class 2 describes compounds with high permeability and low solubility.; BCS Class 3 describes compounds with low permeability and high solubility.; BCS Class 4 describes compounds with low permeability and low solubility
Text: We tested a number of model drugs using the acoustic fusion methods, as described infra. The drugs tested are representative BCS Class 2 and Class 4 drugs. The BCS (Biopharmaceutics Classification System) designation is used to group compounds into classes based on their solubility and permeability (BCS guidance “Waiver of In vivo Bioavailability and Bioequivalence Studies for Immediate Release Solid Oral Dosage Forms Based on a Biopharmaceutics Classification System,” U.S. Department of Health and Human Services, Food and Drug Administration):
BCS Class 1 describes compounds with high permeability and high solubility.
BCS Class 2 describes compounds with high permeability and low solubility.
BCS Class 3 describes compounds with low permeability and high solubility.
BCS Class 4 describes compounds with low permeability and low solubility.
Under the BCS Classification System, a drug is considered highly soluble if fully solubilized in 250 mL water at the highest therapeutic dose at any physiological pH. A drug is considered highly permeable if the extent of oral absorption is greater than 90%.

[2] = Rat oral pharmacokinetic study of torcetrapib formulations; assay type: in vivo; details: male, Wistar-Han, plasma, rats, 10 mg/kg
Experimental: The in vivo absorption of Torcetrapib after oral administration of the Torcetrapib-copovidone-TPGS dispersion described in Example 4 was investigated in rats at a dose level of 10 mg/kg. Materials and methods used for the rat pharmacokinetic study are provided below. Crystalline drug powders and drug-polymer dispersion formulations were also evaluated as control formulations. The drug powders and drug-polymer dispersions were dosed as suspensions in 0.5% of methylene cellulose. The Torcetrapib-polymer dispersion was used as a benchmark formulation for enhancing the drug's solubility and oral absorption.
Male Wistar-Han rats were used for oral administration studies. All animals were fasted overnight before dosing, provided water ad libitum, and fed 4 hours following drug treatment. The fasted animals were orally given torcetrapib formulations by gavage (n=3) at a torcetrapib dose of 10 mg/kg. The formulations included a suspension of crystalline torcetrapib powder in 0.5% of methyl cellulose (MC), a suspension of torcetrapib-polymer dispersion in 0.5% of acidified MC (5 mM HCl added to prevent dissolution of the polymer in the vehicle). Serial blood samples were collected at 0.25, 0.5, 1, 2, 4, 8, 12, 18, and 24 hour post-dose and placed into EDTA-containing tubes and centrifuged. […]
Torcetrapib plasma concentrations were determined by LC-MS/MS following protein precipitation with acetonitrile. […] Analyte response was measured by multiple reaction monitoring (MRM) of transitions unique to each compound.
Calibration curves were generated and verified using standard and quality control samples prepared from an initial weighing of high purity compound. […] The limit of quantification was 1 ng/mL. […]
Pharmacokinetic parameters were calculated by established non-compartmental methods. The area under the plasma concentration vs. time curve from time zero to time t(AUC0-t) was determined using the Watson software (version 7.3) with linear trapezoidal interpolation in the ascending slope and logarithmic trapezoidal interpolation in the descending slope.

| Compound | BCS Class [1] | Tmax ([2]; mean n = 3) [h] | AUC(0-t) ([2]; mean n = 3, read-out: AUC(0-24)) [nM·h] | Cmax ([2]; suspension in 0.5% methyl cellulose, mean n = 3) [µM] |
| --- | --- | --- | --- | --- |
| Cc1cccc(C)c1OCC(=O)N[C@@H](Cc1ccccc1)[C@@H](O)C[C@H](Cc1ccccc1)NC(=O)[C@H](C(C)C)N1CCCNC1=O [Lopinavir, (αS)—N-[(1S,3S,4S)-4-[[2-(2,6-Dimethylphenoxy)acetyl]amino]-3-hydroxy-5-phenyl-1-(phenylmethyl)pentyl]tetrahydro-α-(1-methylethyl)-2-oxo-1(2H)-pyrimidineacetamide] | BCS class 2 | – | – | – |
| CCOC(=O)N1c2ccc(C(F)(F)F)cc2[C@@H](N(Cc2cc(C(F)(F)F)cc(C(F)(F)F)c2)C(=O)OC)C[C@H]1CC [Torcetrapib, (2R,4S)-4-[(3,5-Bis-trifluoromethylbenzyl)methoxycarbonylamino]-2-ethyl-6-trifluoromethyl-3,4-dihydro-2H-quinoline-1-carboxylic acid ethyl ester] | BCS Class 2 | 6 | 707 | 0.084 |
